This data set can be described thus: Storage stability of IPBC in Dowanol TPM solution with cobalt dryer and stabilizer, IPBC amount by HPLC. To be noted: solution in Dowanol TPM with 10% by weight IPBC, 5% by weight Octasoligen-Cobalt 8, 5% by weight stabilizer; for Amount of IPBC (2 weeks, 40° C.): after two weeks storage at 40° C.; for Amount of IPBC (start): at the beginning. The format is physicochemical. The method, then:
A solution is prepared in Dowanol TPM (tripropylene glycol methyl ether), containing 10% by weight of iodopropargyl butylcarbamate, 5% by weight of Octasoligen-Cobalt 8 (Borchers, Langenfeld, Germany) and 5% by weight of the stabilizer specified in Table 1. The compositions are stored at 40° C. The amount of IPBC was determined by means of HPLC at the beginning and after two weeks.

From patent US20090036555A1, “Stabilization of iodine biocides” (priority 2005, published 2009) come the findings set out here.

In the case of `Cc1ccc(O)c(-n2nc3ccccc3n2)c1` [Example 4], the “Amount of IPBC (2 weeks, 40° C.)” value amounted to 9.3% and the “Amount of IPBC (start)” value was determined as 9.9%.

Take `C=C(C)C(=O)OCCc1ccc(O)c(-n2nc3ccccc3n2)c1` [Example 2]: the “Amount of IPBC (2 weeks, 40° C.)” value is recorded as 9.3% and the “Amount of IPBC (start)” value stood at 9.9%.

For the compound `CC(C)(C)c1ccc(O)c(-n2nc3ccccc3n2)c1` [Example 5], the “Amount of IPBC (2 weeks, 40° C.)” value came to 9.8% and the “Amount of IPBC (start)” value is recorded as 9.8%.

For `CC(C)(C)CC(C)(C)c1ccc(O)c(-n2nc3ccccc3n2)c1` [Example 3], the “Amount of IPBC (2 weeks, 40° C.)” value is on record as 9.5% and the “Amount of IPBC (start)” value is reported as 9.9%.

Consider `OCCc1ccc(O)c(-n2nc3ccccc3n2)c1` [Example 1], for which the “Amount of IPBC (2 weeks, 40° C.)” value is 10.4% and the “Amount of IPBC (start)” value came to 11.3%.
